From US7250157B2, “Dermatological compositions and methods” (Applied Genetics Incorporated Dermatics, priority 1996, dated 2007)
Several values for one entry are separate records, joined by “and”; a condition that tells them apart may be missing. Identical values can stand only once.

Assays:
[1] = test system: Cloudman S91 mouse melanoma cell line; assay: Cell count (proliferation, toxicity) of treated S91 cells; type: cell-based; settings: for Cells (×10^6): 4 days, X ± SE, n = 3
Method: The Cloudman S91 mouse melanoma cell line was obtained from American Type Culture Collection (ATCC). Cells were cultured in Dulbecco's Modified Eagles Medium (DMEM) containing 10% calf serum, 2 mM L-glutamine, 10 U Penicillin/ml and 10 ug Streptomycin/ml according to a previously published protocol (Eller, et al., Proc. Natl. Acad. Sci. 93:1087-92. 1996). For testing propylene glycol and analogues for induction of melanogenesis, S91 cells were plated at 10^5 cells/35 mm dish in 10% calf serum. One day after plating, media was removed and replaced with media containing 2% calf serum and test compounds (Eller, et al., 1996). Cells were cultured for 6 days at 37° C. in 5% CO2 in a humidified incubator. Following this treatment period, cells were examined microscopically and the portion of dedifferentiated and differentiated cells was estimated. Previous studies have shown that dedifferentiated S91 cells have a rounded, spindly appearance while differentiated S91 cells have a flattened, cuboidal, multipolar and dendritic appearance (Orlow, et al., Exp. Cell Res. 191:209-218, 1990).
Following this microscopic examination, cells were detached from dishes by trypsin. The time required for detachment by trypsin was recorded as an additional indicator of the phenotypic effects of test compounds. For each treatment, a subsample of cells was counted to determine the effects of treatment compounds on cellular proliferation. The remainder of cells were used for determination of melanin content. Melanin was extracted from cells by vortexing for 15 min in 1N NaOH. Standards were prepared by dissolving melanin (Sigma) in 1 N NaOH (Eller, et al., 1996). Absorbance of standards and samples was measured at 475 nm. Melanin was expressed as pg melanin/cell.

[2] = test system: Normal human epidermal melanocytes (NHEMs); assay: Melanin induction in normal human epidermal melanocytes; type: cell-based
Method: Normal human epidermal melanocytes (NHEMs) were examined for induction of melanogenesis using cells and media from Clonetics Corporation (San Diego, Calif.). Cells were cultured exactly as specified by the supplier.

[3] = test system: American short-haired guinea pigs; assay: Topical melanogenesis (pigmentation rating) in guinea pigs; type: in vivo, guinea pig
Procedure, shortened: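 Agents applied topically to depilated back sites of American short-haired guinea pigs; PG, 2,3-BD and 1,2-cis-CPD at full strength, 3,3-M-1,2-BD at 4M in ethanol. Pigmentation subjectively rated two weeks after cessation of treatment, corrected for control-spot background, normalized to 1M and to 1,2-PG.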

[4] = test system: Tyrosinase in normal human epidermal melanocytes (NHEM); assay: Tyrosinase in NHEM (in situ, cellular, extracellular particulate, media); type: cell-based
Method: Tyrosinase was measured in normal human epidermal melanocytes (NHEM) using procedures identical to those described for S91 cells (Example 6), […], 1600×g, or 17,300×g for analysis of tyrosinase activity in the extracellular exported melanosomal particulate fraction, and in the resultant supernatant media fraction. In some cases (Table 11), tyrosinase was also measured by an in situ assay wherein radiolabelled tyrosine was added directly to freshly replaced media of NHEM for a period of 24 hrs following a 5 day treatment period (Abdel-Malek, et al., 1992, J. Cell. Physiol. 150:416-425). […] Both 5 mM 5-NBene-2,2-DM and 25 mM 3,3-M-1,2-BD induced more tyrosinase in each of these assays and fractions than did 1,2-PG. IBMX (3-isobutyl-1-methyl-xanthine) provided as a positive control, induced as much tyrosinase as 5 mM 5-NBene-2,2-DM in the in situ assay, but less in cellular, extracellular particulate and media fractions (Table 11).

[5] = test system: tyrosinase activity in S91 mouse melanoma cells; assay: Induction of tyrosinase activity in S91 cells
[6] = 5 day treatment, concentrations as E130
[7] = pair of replicates, concentrations as E130
[8] = 300 mM PG-1,2, 25 mM 3,3-M-1,2-BD, 50 mM 1,2-cs-CPD, 5 mM 5-NBene-2,2-DM, 0.5 mM 2,3-Pyd, 0.1 mM IBMX, mean ±SE
[9] = Experiment 1, 5 mM 5-NBene-2,2-DM
[10] = Experiment 2, 5 mM 5-NBene-2,2-DM
[11] = Experiment 3, 5 mM 5-NBene-2,2-DM

Fold Induction of Tyrosinase Relative to Controls ([5]; 0.5 mM (Table 16)): 2.8X | Fold Induction of Tyrosinase Relative to Controls ([5]; 1 mM (Table 15)): 4.0X | Fold Induction of Tyrosinase Relative to Controls ([5]; 1 mM (Table 16)): 3.6X | Fold Induction of Tyrosinase Relative to Controls ([5]; 2 mM (Table 15)): 12.9X | Fold Induction of Tyrosinase Relative to Controls ([5]; 2.5 mM (Table 16)): 14.5X | Fold Induction of Tyrosinase Relative to Controls ([5]; 5 mM (Table 15)): 41.9X | Fold Induction of Tyrosinase Relative to Controls ([5]; 5 mM (Table 16)): 61.6X
Structure (SMILES): OCC1(CO)CC2C=CC1C2 (stereo not drawn) [5-NBene-2,2-DM, 5-norbornene-2,2-dimethanol]
Cells (×10^6) ([1]; 1 mM): 0.423 ± 0.052 ×10^6 | Cells (×10^6) ([1]; 2.5 mM): 0.269 ± 0.040 ×10^6 | Cells (×10^6) ([1]; 5 mM): 0.090 ± 0.011 ×10^6 | toxicity to S91 cells ([1]; concentrations that induce much higher levels of tyrosinase): nontoxic | Concentration Required for ≧1.5-fold Melanin Induction in NHEMs ([2]; listed as 5-Norbornene-2,2-Dimethanol): 5 mM | Concentration Required for ≧1.5-fold Melanin Induction in NHEMs ([2]; listed as 5-norbornene-2,2-dimethanol): ≤ 5 mM | Pigmentation Ratings (X ± SE; n = 6; scale 0 to +4) ([3]; spot a (anterior), 8.7M 1,2-cis-CPD in 20% ETOH, 1M 5-NBene-2,2-DM in 8.5 M propylene glycol, 2% 2-pyrrolidone, 20% ETOH, 1M 2,3-cs/ex PD in 50% ETOH): 1.75 ± 0.43 | Pigmentation Ratings (X ± SE; n = 6; scale 0 to +4) ([3]; spot b, formulations as E220): 1.25 ± 0.21 | Pigmentation Ratings (X ± SE; n = 6; scale 0 to +4) ([3]; spot c, formulations as E220): 0.83 ± 0.15 | Pigmentation Ratings (X ± SE; n = 6; scale 0 to +4) ([3]; spot d (posterior), formulations as E220): 0.29 ± 0.08 | Tyrosinase In Situ ([4]; 5 day treatment, 300 mM 1,2-PG, 25 mM 3,3-M-1,2-BD, 5 mM 5-NBene-2,2-DM, 0.1 mM IBMX): 24.5 dpm/hr/10^3 Cells and 25.4 dpm/hr/10^3 Cells | Tyrosinase 200 g Partic [4, 6]: 6447 dpm/hr/10^3 Cells and 6291 dpm/hr/10^3 Cells | Tyrosinase Cellular [4, 6]: 13838 dpm/hr/10^3 Cells and 14716 dpm/hr/10^3 Cells | Tyrosinase Cellular ([4]; Black-Neonatal-NHEM, 1 mM): 10679 dpm/hr/10^3 cells | Tyrosinase Cellular relative to Control ([4]; Black-Neonatal-NHEM, 1 mM): 1.08 X | Tyrosinase In Situ ([4]; Black-Neonatal-NHEM, 1 mM): 13.9 dpm/hr/10^3 cells | Tyrosinase In Situ relative to Control ([4]; Black-Neonatal-NHEM, 1 mM): 1.11 X | Tyrosinase Media relative to Control ([4]; Black-Neonatal-NHEM, 1 mM): 2.41 X | Tyrosinase Media ([4]; Black-Neonatal-NHEM, 1 mM, media from 1 day treatment period): 26.8 dpm/hr/10^3 cells | Tyrosinase Cellular ([4]; Black-Neonatal-NHEM, 5 mM): 15398 dpm/hr/10^3 cells | Tyrosinase Cellular relative to Control ([4]; Black-Neonatal-NHEM, 5 mM): 1.56 X | Tyrosinase In Situ ([4]; Black-Neonatal-NHEM, 5 mM): 14.1 dpm/hr/10^3 cells | Tyrosinase In Situ relative to Control ([4]; Black-Neonatal-NHEM, 5 mM): 1.13 X | Tyrosinase Media relative to Control ([4]; Black-Neonatal-NHEM, 5 mM): 2.99 X | Tyrosinase Media ([4]; Black-Neonatal-NHEM, 5 mM, media from 1 day treatment period): 33.2 dpm/hr/10^3 cells | Tyrosinase 17300 g Partic ([4]; Post 200 X g, 5 day treatment, concentrations as E130): 493 dpm/hr/10^3 Cells and 473 dpm/hr/10^3 Cells | Tyrosinase Media ([4]; Post 17300 X g, 5 day treatment, concentrations as E130): 4164 dpm/hr/10^3 Cells and 4639 dpm/hr/10^3 Cells | Tyrosinase Cellular ([4]; White-Adult-NHEM, 1 mM): 12740 dpm/hr/10^3 cells | Tyrosinase Cellular relative to Control ([4]; White-Adult-NHEM, 1 mM): 0.91 X | Tyrosinase In Situ ([4]; White-Adult-NHEM, 1 mM): 6.27 dpm/hr/10^3 cells | Tyrosinase In Situ relative to Control ([4]; White-Adult-NHEM, 1 mM): 1.13 X | Tyrosinase Media relative to Control ([4]; White-Adult-NHEM, 1 mM): 0.82 X | Tyrosinase Media ([4]; White-Adult-NHEM, 1 mM, media from 1 day treatment period): 29.9 dpm/hr/10^3 cells | Tyrosinase Cellular ([4]; White-Adult-NHEM, 5 mM): 18467 dpm/hr/10^3 cells | Tyrosinase Cellular relative to Control ([4]; White-Adult-NHEM, 5 mM): 1.32 X | Tyrosinase In Situ ([4]; White-Adult-NHEM, 5 mM): 5.81 dpm/hr/10^3 cells | Tyrosinase In Situ relative to Control ([4]; White-Adult-NHEM, 5 mM): 1.04 X | Tyrosinase Media relative to Control ([4]; White-Adult-NHEM, 5 mM): 1.46 X | Tyrosinase Media ([4]; White-Adult-NHEM, 5 mM, media from 1 day treatment period): 53.1 dpm/hr/10^3 cells | Tyrosinase 200 g Partic, relative to controls (in parentheses) [4, 7]: (18.6X) | Tyrosinase 17300 g Partic, relative to controls (in parentheses) [4, 7]: (4.22X) | Tyrosinase Cellular, relative to controls (in parentheses) [4, 7]: (1.40X) | Tyrosinase In Situ, relative to controls (in parentheses) [4, 7]: (1.57X) | Tyrosinase Media, relative to controls (in parentheses) [4, 7]: (2.83X) | Tyrosinase Relative to Control ([5]; 5 mM 5-NBene-2,2-DM): 8.2X | Tyrosinase dpm/hr/ug Protein ([5]; 5 mM 5-NBene-2,2-DM): 3273 dpm/hr/ug Protein | Tyrosinase dpm/hr/10^3 Cells, Avg. ([5]; 5 mM 5-NBene-2,2-DM, average of two): 4381 dpm/hr/10^3 Cells | Tyrosinase dpm/hr/10^3 Cells ([5]; 5 mM 5-NBene-2,2-DM, single replicates): 4515 dpm/hr/10^3 Cells and 4247 dpm/hr/10^3 Cells | Tyrosinase dpm/hr 10^3 Cells [5, 8]: 707 ± 54 dpm/hr/10^3 Cells | Tyrosinase dpm/hr ug Protein [5, 8]: 1643 ± 105 dpm/hr/ug Protein | % of 5-NBene-2,2-DM [5, 9]: 100% | Tyrosinase induction dpm/hr/10^3 cells [5, 9]: 5018 ± 415^1 dpm/hr/10^3 cells | % of 5-NBene-2,2-DM [5, 10]: 100% | Tyrosinase induction dpm/hr/10^3 cells [5, 10]: 5640 ± 323 dpm/hr/10^3 cells | % of 5-NBene-2,2-DM [5, 11]: 100% | Tyrosinase induction dpm/hr/10^3 cells [5, 11]: 6388 ± 460^1 dpm/hr/10^3 cells
